Measurements as given in publication PMC4829348 (Journal of medicinal chemistry, 2016).

Target: WT A/M2 protein (Influenza A virus, UniProt P0DOF5)
Assay: biochemical
Details: read-out: % WT inhibition

Chain of WT A/M2 protein (P0DOF5 whole entry): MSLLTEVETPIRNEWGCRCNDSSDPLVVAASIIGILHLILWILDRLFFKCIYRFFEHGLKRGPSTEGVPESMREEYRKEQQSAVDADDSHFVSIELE

Structure (SMILES)	inhibition at 100 µM
c1ccc(-c2nc(CNC34CC5CC(CC(C5)C3)C4)cs2)cc1 [26i]	0%
Oc1ccc(NC23CC4CC(CC(C4)C2)C3)c(O)c1 [compound 5]	64%
